From PubChem BioAssay (NCI)
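Five compound concentrations were applied to cells in 96-well plates for 48 hours; endpoints were derived by simple linear interpolation of the resulting dose-response curve. The concentration for full growth arrest is given as TGI.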

Experiments:
Assay in all cases: NCI tumour cell line growth inhibition, 48 h
786-0 renal = system: 786-0 renal
A549 NSCLC = system: A549 NSCLC
ACHN renal = system: ACHN renal
HCC-2998 colon = system: HCC-2998 colon
HCT-116 colon = system: HCT-116 colon
HCT-15 colon = system: HCT-15 colon
IGROV1 ovarian = system: IGROV1 ovarian
KM12 colon = system: KM12 colon
MCF7 breast = system: MCF7 breast
MDA-N = system: MDA-N
NCI-H460 lung = system: NCI-H460 lung
NCI/ADR-RES ovarian = system: NCI/ADR-RES ovarian
OVCAR-3 ovarian = system: OVCAR-3 ovarian
SK-OV-3 ovarian = system: SK-OV-3 ovarian
SN12C renal = system: SN12C renal
SNB-19 CNS = system: SNB-19 CNS
SW-620 colon = system: SW-620 colon
T-47D breast = system: T-47D breast
UO-31 renal = system: UO-31 renal

SMILES	TGI (786-0 renal)	TGI (A549 NSCLC)	TGI (ACHN renal)	TGI (HCC-2998 colon)	TGI (HCT-116 colon)	TGI (HCT-15 colon)	TGI (IGROV1 ovarian)	TGI (KM12 colon)	TGI (MCF7 breast)	TGI (MDA-N)	TGI (NCI-H460 lung)	TGI (NCI/ADR-RES ovarian)	TGI (OVCAR-3 ovarian)	TGI (SK-OV-3 ovarian)	TGI (SN12C renal)	TGI (SNB-19 CNS)	TGI (SW-620 colon)	TGI (T-47D breast)	TGI (UO-31 renal)
CN(CCCNC(=O)c1cn(C)c2c1ccc1cc(Cl)c(Cl)cc12)CCCNC(=O)c1cn(C)c2c1ccc1cc(Cl)c(Cl)cc12	49.4 µM	32.4 µM	27.2 µM	18.6 µM	31.2 µM	27.5 µM	25.5 µM	20.8 µM	19.6 µM	36 µM	29.8 µM	33.1 µM	> 54.9 µM	30.7 µM	32.3 µM	17.9 µM	19.1 µM	36.2 µM	39.6 µM
O=C(C#CP(=O)(O)c1ccccc1)c1ccccc1	> 100 µM	> 100 µM	> 100 µM	> 100 µM	> 100 µM	> 100 µM	> 100 µM	> 100 µM	> 100 µM	> 100 µM	> 100 µM	> 100 µM	> 100 µM	> 100 µM	> 100 µM	> 100 µM	> 100 µM	> 100 µM	4.14 µM
